Laboratory results reported in patent publication US10647672B2, “Modulators of cell adhesion, methods and compositions therefor” (Zonula Incorporated, priority 2017, dated 2020).

Assays:
Assay type in all cases: cell-based
[1] = tested on: Panc-1 human pancreatic cancer cells; assay: cancer cell adhesion, visual retraction of cells; settings: 24 hours, light microscopy
Procedure: (§1) In these experiments, Panc-1 human pancreatic cancer cells were maintained in Dulbecco's minimum essential medium supplemented with 10% fetal calf serum at 37° C. in 5% CO2 in air. All culture reagents were purchased from Invitrogen (Burlington, ON). Panc-1 cells (ATCC CRL-1469) were plated at 20,000 cells per well of a 4-well tissue culture slide (NalgeNunc, Naperville, Ill.). After 24 hours of culture, cells were treated for 24 hours with medium containing varying concentrations of compounds 15 and 16 dissolved in dimethylsulfoxide (DMSO; final concentration of 1% DMSO in the medium), or 1% DMSO alone in the medium and then fixed with 4% paraformaldehyde dissolved in phosphate buffered saline and stained with hematoxylin. Disruption of cell adhesion was determined visually within 24 hours, by observing retraction of the cells from one another.

[2] = tested on: 3D spheroid N-cadherin mouse fibroblast (LN5) cells; assay: hanging drop 3D spheroid cell culture assay; settings: hanging drops incubated 48 h
Procedure: In these experiments, a total of 2×10^6 originally noncohesive embryonic mouse L929 fibroblasts (L cells) were transfected by electroporation in 400 μl transfection medium (RPMI 1640, 1% dextrose, 1 mM β-mercaptoethanol) with 40 μg pMiwcN chicken N-cadherin expression vector (Miyatani, S., et al., Science, 1989, 245, 631-635; Fujimori T., et al., Development, 1990, 110. 97-104). Neomycin resistance (pwlneo, GIBCO) was included for G418 selection. Transfected cells were diluted 1/100 and placed in medium containing 800 μg/ml G418 (GIBCO). Resistant cells were grown to confluence, detached by trypsin/Ca^2+ treatment, and stained with an anti-chicken N-cadherin antibody (NCD2, Zymed) on ice for 45 min. After several washes in Hanks' balanced salt solution, cells were mixed with a fluorescein isothiocyanate-conjugated secondary antibody and placed on ice for 30 min. N-cadherin-expressing cells were then autocloned into 96-well plates by using the CloneCyt Integrated Deposition System (Becton-Dickinson Immunocytometry Systems). Positive clones were reanalyzed by FACS and the L cell line LN5 was propagated for these studies.
The 3D spheroids were generated as follows. Cells were removed from near-confluent plates with TC (0.05% trypsin and 2 mM Ca^2+ in Hank's solution for 5-10 minutes), washed once with 1 mL 4° C. Hank's solution, and suspended at a concentration of 2.5×10^6 cells/ml in complete MEM supplemented with 2 mM CaCl2 and varying concentrations of N-cadherin antagonists (Crocus Laboratories, Montreal, Quebec, Canada). The antagonists were compound 15 (MW=499.43) and compound 16 (MW=499.43). Stock solutions of the antagonists were prepared by dissolving the antagonists in DMSO at concentrations of 30 mM. Controls were made by suspending the cells as described above in the absence of antagonists with only the respective amount of DMSO added. Drops of the cell suspensions (10 microliters each) were deposited on the underside of a 10 cm tissue culture dish lid. The lid was then inverted and placed on dish containing 5 ml of PBS for hydration. Hanging drops were incubated under tissue culture conditions for 48 h, allowing the cells to coalesce at the base of the droplets and to form multi-layer aggregates. The tissue culture dish lid was then removed and the medium was gently aspirated. Aggregates (N=10-20) where then photographed under 4× lens and cell area was analyzed using ImageJ. Statistical differences were determined using ANOVA and Tukey's multiple comparison test.
Each of the antagonists tested from Crocus Laboratories contained cadherin antagonist properties at different potency levels. We determined the approximate minimum concentration needed for an anti-adhesion dose response on 3D spheroid N-cadherin mouse fibroblast (LN5) cells. […]

[3] = tested on: Panc-1 human pancreatic cancer cells; assay: cell death, trypan blue exclusion count; settings: 24 hours
Procedure: as §1
In order to determine the effect of the compounds on cell death, the medium was aspirated from the treated and untreated cultures and the non-adherent cells collected by centrifugation (1000 rpm for 5 min). The cells were resuspended in phosphate buffered saline and combined with trypan blue (Sigma). Cells were then put in a hemocytometer and the number of cells that excluded the trypan blue counted using a microscope to determine the number of live cells.

## COc1ccc(OC[C@@H](O)CNC2CCN(C[C@@H](O)COc3ccc(Cl)c(Cl)c3)CC2)cc1 [Compound 16, (R)-1-(3,4-Dichlorophenoxy)-3-(4-((S)-2-hydroxy-3-(4-methoxyphenoxy)propylamino)piperidin-1-yl)propan-2-ol]
[1]; 0.1 μM
  disruption of cell adhesion: disrupted cell adhesion
[1]; 1 μM
  disruption of cell adhesion: disrupted cell adhesion
[1]; 10 μM
  disruption of cell adhesion: disrupted cell adhesion
[1]; 100 μM
  disruption of cell adhesion: disrupted cell adhesion
[2]
  concentration at which complete disruption occurred: 75 µM
  minimum concentration required to observe cohesion disruption: 50 µM
[3]; 1 μM
  cell death in comparison to the control: caused cell death
[3]; 10 μM
  cell death in comparison to the control: caused cell death
[3]; 100 μM
  cell death in comparison to the control: caused cell death
